Source: patent publication US20240300944A1, “NOVEL UREA DERIVATIVE COMPOUND AS RON INHIBITOR” (LG CHEM, LTD., priority 2021, published 2024)

How the values were obtained:
RON = RON (Homo sapiens, UniProt Q04912); assay: Inhibitory activity against RON, TR-FRET kinase assay; assay type: biochemical; settings: RON enzyme
Protocol: In order to measure the inhibitory activity of each of the compounds of Examples against RON, the IC50 of each of the compounds was measured using a Time-Resolved Fluorescence Energy Transfer Chemistry (TR-FRET).
(§1) Specifically, the compound was prepared to a concentration of 1 mM with 100% DMSO and was diluted 10 times in a stepwise manner through 3-fold dilution. 2 ul of the compound diluted in a stepwise manner was added to a 96-well-plate containing 48 ul of a 1× kinase reaction buffer (50 mM HEPES (pH 7.4), 0.01% Tween-20, 5 mM DTT, 0.5 mM Na3VO4, 2 mM EGTA, 10 mM MgCl2).
The RON protein was diluted to a concentration of 49.3 nM with an RON storage buffer (50 mM Tris-HCl (pH 7.5), 150 mM NaCl, 0.5 mM EDTA, 0.02% Triton X-100), and then diluted again to a concentration of 0.4 nM with a 1× kinase reaction buffer. As a substrate cocktail, a RON-specific substrate mixture (40 uM ULight-labeled Poly GT, 100 nM ATP) at a concentration 2 times the final reaction concentration.
Thereafter, a 384-well-plate was prepared, and 2.5 ul of each of the diluted compounds of Examples was added to a corresponding well of experimental group wells, and 2.5 ul of a 4% DMSO solution was dispensed into high control wells and low control wells.
(§2) Thereafter, 2.5 μL of 0.4 nM RON was dispensed into the high control wells and the experimental group wells, and 2.5 μL of a 1× kinase reaction buffer was added to the low control wells, and the RON and the reaction buffer were centrifuged at room temperature for 40 seconds at 1000 RPM, and then incubated at room temperature for 20 to 30 minutes. Then, 5 μL of a substrate cocktail (2×) was dispensed into all wells, centrifuged at room temperature for 40 seconds at 1000 RPM, and then incubated at room temperature for 60 minutes. Thereafter, 5 μL of 30 mM EDTA was added to all wells to terminate the reaction, and then incubated again at room temperature for 5 minutes. Thereafter, 5 μL of a 4× phosphotyrosine antibody (Perkin Elmer) containing europium was added to all wells, and then incubated at room temperature for 60 minutes. After the incubation, the 384-well-plate was read with a Vison plate reader. At this time, the excitation wavelength was 340 nm, and the emission wavelength was 620 nm and 665 nm. The IC50 value of the compound of each Example was derived using the GraphPd Prism7 program.

cMET = cMET (Homo sapiens, UniProt P08581); assay: Inhibitory activity against MET (cMET), TR-FRET kinase assay; assay type: biochemical; settings: cMET enzyme
Protocol: In addition, in order to measure the enzyme activity inhibition for cMET, the evaluation was performed in the same manner as the enzyme activity inhibition measurement experiment for the RON.
as §1, with “7.4), 0.05% BSA, 0.005%” for “7.4), 0.01%”, “Tween-20, 1” for “Tween-20, 5”, “mM MnCl2, 20” for “mM Na3VO4, 2 mM EGTA, 10”
The cMET protein was diluted to a concentration of 263 nM with a cMET storage buffer (50 mM Tris-HCl (pH 7.5), 150 mM NaCl, 0.05% Brij35, 1 mM DTT, 10% Glycerol), and then diluted again to a concentration of 2 nM with a 1× kinase reaction buffer. As a substrate cocktail, a MET-specific substrate mixture (5 uM TK peptide, […]) at a concentration 2 times the final reaction concentration.
Thereafter, a 384-well-plate was prepared, and 2.5 μl of each of the diluted compounds of Examples was added to a corresponding well of experimental group wells, and 2.5 μl of a 4% DMSO solution was dispensed into high control wells and low control wells.
as §2, with “of 2” for “of 0.4”, “nM cMET” for “nM RON”, “of 90” for “of 30”

RON, sequence (Q04912 25-1400, species assumed): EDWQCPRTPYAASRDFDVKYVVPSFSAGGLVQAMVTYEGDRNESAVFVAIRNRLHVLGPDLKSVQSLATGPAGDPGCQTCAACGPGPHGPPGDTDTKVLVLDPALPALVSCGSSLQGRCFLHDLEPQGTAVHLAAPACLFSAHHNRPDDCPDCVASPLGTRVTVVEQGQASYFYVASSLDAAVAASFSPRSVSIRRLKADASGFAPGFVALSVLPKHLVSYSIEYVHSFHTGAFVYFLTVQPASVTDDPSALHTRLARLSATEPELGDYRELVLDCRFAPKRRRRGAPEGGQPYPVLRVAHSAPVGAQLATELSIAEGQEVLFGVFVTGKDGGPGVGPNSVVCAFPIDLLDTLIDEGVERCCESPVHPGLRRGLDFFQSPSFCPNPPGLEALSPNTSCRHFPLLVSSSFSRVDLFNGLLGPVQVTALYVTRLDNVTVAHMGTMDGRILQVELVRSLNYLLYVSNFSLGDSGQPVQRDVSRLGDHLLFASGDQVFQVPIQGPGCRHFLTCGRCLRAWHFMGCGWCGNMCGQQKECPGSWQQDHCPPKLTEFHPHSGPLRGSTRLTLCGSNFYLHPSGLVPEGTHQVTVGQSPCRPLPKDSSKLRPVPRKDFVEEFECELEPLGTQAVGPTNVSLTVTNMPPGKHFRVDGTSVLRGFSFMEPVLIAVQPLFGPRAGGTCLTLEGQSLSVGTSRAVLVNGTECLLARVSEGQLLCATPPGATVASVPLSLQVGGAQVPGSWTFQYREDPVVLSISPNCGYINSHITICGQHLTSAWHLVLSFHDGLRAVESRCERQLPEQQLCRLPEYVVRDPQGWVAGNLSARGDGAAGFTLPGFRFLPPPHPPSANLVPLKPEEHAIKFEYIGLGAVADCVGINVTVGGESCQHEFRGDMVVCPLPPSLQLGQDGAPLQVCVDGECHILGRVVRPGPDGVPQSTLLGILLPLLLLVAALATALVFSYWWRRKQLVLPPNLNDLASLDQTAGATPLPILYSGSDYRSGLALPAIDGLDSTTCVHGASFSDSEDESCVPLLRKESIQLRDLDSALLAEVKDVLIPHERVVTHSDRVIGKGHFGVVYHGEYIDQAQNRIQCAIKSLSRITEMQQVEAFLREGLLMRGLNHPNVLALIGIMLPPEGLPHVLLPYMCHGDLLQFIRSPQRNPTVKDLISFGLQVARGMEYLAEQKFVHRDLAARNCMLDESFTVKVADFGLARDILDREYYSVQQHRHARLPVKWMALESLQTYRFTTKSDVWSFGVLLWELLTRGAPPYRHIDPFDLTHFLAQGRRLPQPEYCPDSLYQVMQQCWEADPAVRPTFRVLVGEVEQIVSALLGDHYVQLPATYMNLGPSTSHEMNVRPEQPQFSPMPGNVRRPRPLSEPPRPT
cMET, sequence (P08581 25-1390): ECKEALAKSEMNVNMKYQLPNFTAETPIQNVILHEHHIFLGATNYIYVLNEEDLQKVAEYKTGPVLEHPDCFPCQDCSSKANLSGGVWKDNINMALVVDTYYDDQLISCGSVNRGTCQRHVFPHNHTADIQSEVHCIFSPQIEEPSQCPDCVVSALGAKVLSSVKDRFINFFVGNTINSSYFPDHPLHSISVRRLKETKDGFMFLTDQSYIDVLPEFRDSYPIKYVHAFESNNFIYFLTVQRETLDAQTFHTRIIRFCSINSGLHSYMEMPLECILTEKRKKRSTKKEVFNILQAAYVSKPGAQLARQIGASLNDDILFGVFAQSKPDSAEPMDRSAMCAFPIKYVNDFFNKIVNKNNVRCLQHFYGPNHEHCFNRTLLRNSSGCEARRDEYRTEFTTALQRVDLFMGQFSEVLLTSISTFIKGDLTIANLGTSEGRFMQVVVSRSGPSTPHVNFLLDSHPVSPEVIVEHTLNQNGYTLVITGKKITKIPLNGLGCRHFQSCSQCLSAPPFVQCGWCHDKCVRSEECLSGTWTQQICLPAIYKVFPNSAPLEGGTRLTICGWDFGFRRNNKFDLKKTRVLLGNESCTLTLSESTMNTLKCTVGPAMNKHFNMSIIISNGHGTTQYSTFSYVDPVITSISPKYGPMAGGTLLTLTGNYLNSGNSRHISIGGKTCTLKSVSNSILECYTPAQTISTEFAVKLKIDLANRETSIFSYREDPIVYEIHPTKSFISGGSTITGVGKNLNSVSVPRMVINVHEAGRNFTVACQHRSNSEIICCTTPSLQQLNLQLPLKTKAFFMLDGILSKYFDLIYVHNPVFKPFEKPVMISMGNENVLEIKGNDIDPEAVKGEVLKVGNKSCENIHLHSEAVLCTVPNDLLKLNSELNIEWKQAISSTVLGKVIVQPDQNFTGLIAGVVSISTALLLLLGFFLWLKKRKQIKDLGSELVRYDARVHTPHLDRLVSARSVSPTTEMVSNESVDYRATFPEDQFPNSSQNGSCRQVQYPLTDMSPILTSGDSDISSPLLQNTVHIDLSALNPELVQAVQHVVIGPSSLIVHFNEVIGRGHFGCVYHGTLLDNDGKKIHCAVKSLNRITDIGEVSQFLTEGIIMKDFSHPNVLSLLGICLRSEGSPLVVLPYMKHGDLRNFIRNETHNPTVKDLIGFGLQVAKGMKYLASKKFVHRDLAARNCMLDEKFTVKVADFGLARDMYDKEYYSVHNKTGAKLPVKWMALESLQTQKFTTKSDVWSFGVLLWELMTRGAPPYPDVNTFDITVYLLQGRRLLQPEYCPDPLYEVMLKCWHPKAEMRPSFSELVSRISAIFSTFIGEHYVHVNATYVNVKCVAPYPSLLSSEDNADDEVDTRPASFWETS

Row | SMILES | IC50 (RON) [nM] | IC50 (cMET) [nM]
1 | CC(C)n1c(=O)[nH]c2nccc(Oc3ccc(NC(=O)c4cnc(-c5ccccc5)s4)cc3F)c21 [Example 15, N-(3-fluoro-4-((1-isopropyl-2-oxo-2,3-dihydro-1H-imidazo[4,5-b]pyridine-7-yl)oxy)phenyl)-2-phenylthiazole-5-carboxamide] | 50 to 500 | > 5000
2 | CC(C)n1c(=O)[nH]c2nccc(Oc3ccc(NC(=O)c4cnn(C5CCCCC5)c4C(F)(F)F)cc3F)c21 [Example 28, 1-cyclohexyl-N-(3-fluoro-4-((1-isopropyl-2-oxo-2,3-dihydro-1H-imidazo[4,5-b]pyridine-7-yl)oxy)phenyl)-5-(trifluoromethyl)-1H-pyrazole-4-carboxamide] | < 50 | 500 to 5000
3 | Cc1ccc(-n2ncc(C(=O)Nc3ccc(Oc4ccnc5[nH]c(=O)n(C(C)C)c45)c(F)c3)c2C(F)(F)F)cc1 [Example 17, N-(3-fluoro-4-((1-isopropyl-2-oxo-2,3-dihydro-1H-imidazo[4,5-b]pyridine-7-yl)oxy)phenyl)-1-(p-tolyl)-5-(trifluoromethyl)-1H-pyrazole-4-carboxamide] | 50 to 500 | > 5000
4 | Cc1nn(-c2ccccc2)c(C)c1C(=O)Nc1ccc(Oc2ccnc3[nH]c(=O)[nH]c23)c(F)c1 [Example 12, N-(3-fluoro-4-((2-oxo-2,3-dihydro-1H-imidazo[4,5-b]pyridine-7-yl)oxy)phenyl)-3,5-dimethyl-1-phenyl-1H-pyrazole-4-carboxamide] | 50 to 500 | > 5000
5 | Cc1c(C(=O)Nc2ccc(Oc3ccnc4[nH]c(=O)n(C(C)C)c34)c(F)c2)nnn1-c1ccccc1 [Example 42, N-(3-fluoro-4-((1-isopropyl-2-oxo-2,3-dihydro-1H-imidazo[4,5-b]pyridine-7-yl)oxy)phenyl)-5-methyl-1-phenyl-1H-1,2,3-triazole-4-carboxamide] | 50 to 500 | > 5000
6 | CC(C)n1c(=O)[nH]c2nccc(Oc3ccc(NC(=O)c4cnn(-c5cccc6ccccc56)c4C(F)(F)F)cc3F)c21 [Example 26, N-(3-fluoro-4-((1-isopropyl-2-oxo-2,3-dihydro-1H-imidazo[4,5-b]pyridine-7-yl)oxy)phenyl)-1-(naphthalene-1-yl)-5-(trifluoromethyl)-1H-pyrazole-4-carboxamide] | 50 to 500 | 500 to 5000
7 | CC(C)n1c(=O)[nH]c2nccc(Oc3ccc(NC(=O)c4cnn(C5CCCOC5)c4C(F)(F)F)cc3F)c21 (stereo not shown) [Example 20, N-(3-fluoro-4-((1-isopropyl-2-oxo-2,3-dihydro-1H-imidazo[4,5-b]pyridine-7-yl)oxy)phenyl)-1-(tetrahydro-2H-pyran-3-yl)-5-(trifluoromethyl)-1H-pyrazole-4-carboxamide] | < 50 | 500 to 5000
8 | Cc1nn(-c2ccccc2)c(C)c1C(=O)Nc1ccc(Oc2ccnc3[nH]c(=O)n(C(C)C)c23)c(F)c1 [Example 13, N-(3-fluoro-4-((1-isopropyl-2-oxo-2,3-dihydro-1H-imidazo[4,5-b]pyridine-7-yl)oxy)phenyl)-3,5-dimethyl-1-phenyl-1H-pyrazole-4-carboxamide] | < 50 | 50 to 500
9 | CC(C)n1c(=O)[nH]c2nccc(Oc3ccc(NC(=O)c4ccccc4C(F)(F)F)cc3F)c21 [Example 24, N-(3-fluoro-4-((1-isopropyl-2-oxo-2,3-dihydro-1H-imidazo[4,5-b]pyridine-7-yl)oxy)phenyl)-2-(trifluoromethyl)benzamide] | 500 to 5000 | 500 to 5000
10 | CC(C)n1c(=O)[nH]c2nccc(Oc3ccc(NC(=O)c4ccc(Br)cc4C(F)(F)F)cc3F)c21 [Example 25, 4-bromo-N-(3-fluoro-4-((1-isopropyl-2-oxo-2,3-dihydro-1H-imidazo[4,5-b]pyridine-7-yl)oxy)phenyl)-2-(trifluoromethyl)benzamide] | 50 to 500 | > 5000

Second part, the compound after the results:

Row | IC50 (RON) [nM] | IC50 (cMET) [nM] | SMILES
11 | < 50 | > 5000 | CN1CCC(n2c(=O)[nH]c3nccc(Oc4ccc(NC(=O)c5cnn(-c6ccccc6)c5C(F)(F)F)cc4F)c32)CC1 [Example 39, N-(3-fluoro-4-((1-(1-methylpiperidine-4-yl)-2-oxo-2,3-dihydro-1H-imidazo[4,5-b]pyridine-7-yl)oxy)phenyl)-1-phenyl-5-(trifluoromethyl)-1H-pyrazole-4-carboxamide]
12 | < 50 | 500 to 5000 | O=C(Nc1ccc(Oc2ccnc3[nH]c(=O)n(C4CCCC4)c23)c(F)c1)c1cnn(-c2ccccc2)c1C(F)(F)F [Example 22, N-(4-((1-cyclopentyl-2-oxo-2,3-dihydro-1H-imidazo[4,5-b]pyridine-7-yl)oxy)-3-fluorophenyl)-1-phenyl-5-(trifluoromethyl)-1H-pyrazole-4-carboxamide]
13 | < 50 | 500 to 5000 | CC(C)n1c(=O)[nH]c2nccc(Oc3ccc(NC(=O)c4cnn(-c5ccccc5)c4C(F)(F)F)cc3F)c21 [Example 7, N-(3-fluoro-4-((1-isopropyl-2-oxo-2,3-dihydro-1H-imidazo[4,5-b]pyridine-7-yl)oxy)phenyl)-1-phenyl-5-(trifluoromethyl)-1H-pyrazole-4-carboxamide]
14 | 50 to 500 | 500 to 5000 | O=C(Nc1ccc(Oc2ccnc3[nH]c(=O)n(C4CCOCC4)c23)c(F)c1)c1cnn(-c2ccccc2)c1C(F)(F)F [Example 37, N-(3-fluoro-4-((2-oxo-1-(tetrahydro-2H-pyran-4-yl)-2,3-dihydro-1H-imidazo[4,5-b]pyridine-7-yl)oxy)phenyl)-1-phenyl-5-(trifluoromethyl)-1H-pyrazole-4-carboxamide]
15 | < 50 | > 5000 | Cn1c(=O)[nH]c2nccc(Oc3ccc(NC(=O)c4ncn(-c5ccccc5)c4C(F)(F)F)cc3F)c21 [Example 5, N-(3-fluoro-4-((1-methyl-2-oxo-2,3-dihydro-1H-imidazo[4,5-b]pyridine-7-yl)oxy)phenyl)-1-phenyl-5-(trifluoromethyl)-1H-imidazole-4-carboxamide]
16 | < 50 | > 5000 | O=C(Nc1ccc(Oc2ccnc3[nH]c(=O)n(C4CCOCC4)c23)c(F)c1)c1ncn(-c2ccccc2)c1C(F)(F)F [Example 11, N-(3-fluoro-4-((2-oxo-1-(tetrahydro-2H-pyran-4-yl)-2,3-dihydro-1H-imidazo[4,5-b]pyridine-7-yl)oxy)phenyl)-1-phenyl-5-(trifluoromethyl)-1H-imidazole-4-carboxamide]
17 | < 50 | > 5000 | CCn1c(=O)[nH]c2nccc(Oc3ccc(NC(=O)c4cnn(-c5ccccc5)c4C(F)(F)F)cc3F)c21 [Example 4, N-(4-((1-ethyl-2-oxo-2,3-dihydro-1H-imidazo[4,5-b]pyridine-7-yl)oxy)-3-fluorophenyl)-1-phenyl-5-(trifluoromethyl)-1H-pyrazole-4-carboxamide]
